# Earlier results, collected in US9329191B2, “Reaction-based fluorescent probe for selective detection of carbon monoxide using metal-mediated carbonylation” (THE REGENTS OF THE UNIVERSITY OF CALIFORNIA, priority 2013, dated 2016).
# Conditions: literature
compound,measurement,value
"NCC(=O)O.[C-]#[O+].[C-]#[O+].[C-]#[O+].[Cl][Ru] [CORM-3, [Ru(CO)3Cl(glycinate)]]",CORM-3 concentration shown to not alter cell viability,up to 500 μM
